Values quoted from earlier work as cited in PubChem BioAssay AID1259410 (Chemical Carcinogenesis Research Information System (CCRIS), 2018).

Test system: rodent tumor promotion studies, tumor incidence
Assay: CCRIS tumor promotion studies

CCCCCCCCCCCCCC(=O)O[C@@H]1[C@@H](C)[C@@]2(O)[C@@H](C=C(CO)C[C@]3(O)C(=O)C(C)=C[C@@H]23)[C@@H]2C(C)(C)[C@]12OC(C)=O
outcome (Carcinogen: 7,12-DIMETHYLBENZ(A)ANTHRACENE, Doses [Carcinogen]: IG TO MOTHERS, Route [Carcinogen]: GAVAGE, Route [Promoter]: DERMAL, Species: MOUSE, Strain/Sex: NMRI/MALE,FEMALE): integumentary system (skin); forestomach; stomach; liver; lung; colon; kidney; r
outcome (Carcinogen: 7,12-DIMETHYLBENZ(A)ANTHRACENE, Doses [Carcinogen]: IG, Route [Carcinogen]: GAVAGE, Route [Promoter]: GAVAGE, Species: MOUSE, Strain/Sex: FEMALE): forestomach
outcome (Carcinogen: 7,12-DIMETHYLBENZ(A)ANTHRACENE, Doses [Carcinogen]: TOP, Route [Carcinogen]: DERMAL, Route [Promoter]: DERMAL, Species: MOUSE, Strain/Sex: MALE,FEMALE): integumentary system (skin)
outcome (Carcinogen: 7,12-DIMETHYLBENZ(A)ANTHRACENE, Doses [Carcinogen]: TRANS-PLACENTAL, Route [Carcinogen]: TRANS-PLACENTAL, Route [Promoter]: DERMAL, Species: MOUSE, Strain/Sex: NMRI/MALE,FEMALE): integumentary system (skin); lung; liver
outcome (Carcinogen: 7,12-DIMETHYLBENZO[K]FLUORANTHENE, 95741-56-3, Doses [Carcinogen]: 4 UMOL (TOTAL DOSE) ADMINISTERED IN 10 SUBDOSES 1/2 D, Doses [Promoter]: 2.5 UG IN 0.1 ML ACETONE 3/WK FOR 30 WK BEGINNING 10 D POST CARCINOGEN TREATMENT (STUDY DURATION: 33 WK), Route [Carcinogen]: DERMAL, Route [Promoter]: DERMAL, Species: MOUSE, Strain/Sex: CRL:CD-1/FEMALE): skin: tumor
outcome (Carcinogen: 7,12-DIMETHYLBENZ[A]ANTHRACENE-3,4-DIOL, 71964-72-2, Doses [Carcinogen]: 4, 10 NMOL ONCE, Doses [Promoter]: 0, 3.4 NMOL 2/WK FOR 19 WK BEGINNING 2 WK POST CARCINOGEN DOSE (STUDY DURATION: 21 WK), Route [Carcinogen]: DERMAL, Route [Promoter]: DERMAL, Species: MOUSE, Strain/Sex: SENCAR/FEMALE): skin: papilloma
outcome (Carcinogen: 7,12-DIMETHYLBENZ[A]ANTHRACENE, 57-97-6, Doses [Carcinogen]: 1 NMOL IN 100 µL ACETONE, Doses [Promoter]: 2.16 NMOL IN 100 µL ACETONE 2/WK FOR 27 WK BEGINNING 1 WK POST CARCINOGEN DOSE (STUDY DURATION: 28 WK), Route [Carcinogen]: DERMAL, Route [Promoter]: DERMAL, Species: MOUSE, Strain/Sex: SENCAR/FEMALE): skin: tumor
outcome (Carcinogen: 7,12-DIMETHYLBENZ[A]ANTHRACENE, 57-97-6, Doses [Carcinogen]: 4, 20, 100 NMOL IN 100 µL ACETONE ONCE, Doses [Carcinogen]: 4, 20, 100 NMOL IN 100 µL ACETONE ONCE, Doses [Promoter]: 3.24 NMOL/100 µL ACETONE 2/WK BEGINNING 2 WK POST CARCINOGEN DOSE AND CONTINUING FOR 24 WK (STUDY DURATION: 27 WK), Route [Carcinogen]: DERMAL, Route [Promoter]: DERMAL, Species: MOUSE, Strain/Sex: SENCAR/FEMALE): skin: tumor
outcome (Carcinogen: 7,12-DIMETHYLBENZ[A]ANTHRACENE, 57-97-6, Doses [Carcinogen]: 10 NMOL APPLIED TO BACK ONCE, Doses [Promoter]: 1.5 NMOL 2/WK FOR 19 WK BEGINNING 1 WK POST CARCINOGEN DOSE (STUDY DURATION: 40 WK), Route [Carcinogen]: DERMAL, Route [Promoter]: DERMAL, Species: MOUSE, Strain/Sex: HRA/SKH/FEMALE): skin: papilloma
outcome (Carcinogen: 7,12-DIMETHYLBENZ[A]ANTHRACENE, 57-97-6, Doses [Carcinogen]: 20 NMOL IN ACETONE ONCE, Doses [Promoter]: 0, 0.2 ML OF 10 UG/ML SOLUTION IN ACETONE 2/WK FOR 51 WK (STUDY DURATION: 52 WK), Route [Carcinogen]: DERMAL, Route [Promoter]: DERMAL, Species: MOUSE, Strain/Sex: SENCAR/FEMALE): skin: squamous cell carcinoma
outcome (Carcinogen: 7,12-DIMETHYLBENZ[A]ANTHRACENE, 57-97-6, Doses [Carcinogen]: 20 NMOL ONCE, Doses [Promoter]: 0, 1, 2, 5 UG IN 200 µL ACETONE 2/WK FOR 23 WK BEGINNING 1 WK POST CARCINOGEN DOSE (STUDY DURATION: 24 WK), Doses [Promoter]: 0, 1, 2, 5 UG IN 200 µL ACETONE 2/WK FOR 23 WK BEGINNING 1 WK POST CARCINOGEN DOSE (STUDY DURATION: 24 WK), Route [Carcinogen]: DERMAL, Route [Promoter]: DERMAL, Species: MOUSE, Strain/Sex: 129/SVEV/FEMALE): skin: tumor
outcome (Carcinogen: 7,12-DIMETHYLBENZ[A]ANTHRACENE, 57-97-6, Doses [Carcinogen]: 100 NMOL ONCE, Doses [Promoter]: 0, 1, 2, 5 UG IN 200 µL ACETONE 2/WK FOR 23 WK BEGINNING 1 WK POST CARCINOGEN DOSE (STUDY DURATION: 24 WK), Doses [Promoter]: 0, 1, 2, 5 UG IN 200 µL ACETONE 2/WK FOR 23 WK BEGINNING 1 WK POST CARCINOGEN DOSE (STUDY DURATION: 24 WK), Route [Carcinogen]: DERMAL, Route [Promoter]: DERMAL, Species: MOUSE, Strain/Sex: 129/SVEV/FEMALE): skin: tumor
outcome (Carcinogen: 7,12-DIMETHYLBENZ[A]ANTHRACENE, 57-97-6, Doses [Carcinogen]: 100 NMOL ONCE, Doses [Promoter]: 10 NMOL 2/WK FOR 24 WK BEGINNING 1 WK POST CARCINOGEN DOSE (STUDY DURATION: 25 WK), Route [Carcinogen]: DERMAL, Route [Promoter]: DERMAL, Species: NMRI/FEMALE G, Strain/Sex: NMRI/FEMALE): skin: tumor
